Reference: paper PMC6318274, “Lattice engineering enables definition of molecular features allowing for potent small-molecule inhibition of HIV-1 entry” (Nature Communications, 2019)
Values joined by “and” are separate entries in the source; they are usually repeats but may differ in a detail not shown here. Identical values can stand only once. Like-named read-outs stand apart in the source and are kept apart here.

Tested on: HIV-1 Env-pseudoviruses (208-strain panel)
Test: microbe, parasite or virus in culture
Type: cell-based
Set-up: Total Neutralized / % Neutralized: concentration or dose not given beside the values
Protocol: Neutralization was measured using single-round-of-infection HIV-1 Env-pseudoviruses and TZM-bl target cells (ARP Cat No. #8129)[44],[45]. Compounds were prepared at 400 μM with 4% DMSO (dimethyl sulfoxide) in PBS (phosphate-buffered saline) and diluted 20 times as the starting concentration for serial dilution in the neutralization assays. […] After incubation at 37 °C for 2 days, infection of target cells was measured by luciferase activity. Neutralization curves were fit by nonlinear regression using a five-parameter hill slope equation[45].

COc1cnc(-c2csc(C(=O)NCCO)n2)c2[nH]cc(C(=O)C(=O)N3CCC(=C(C#N)c4ccccc4)CC3)c12 [BMS-818251]
% Neutralized: 99% and 98% and 93% and 83% and 75%
Total Neutralized: 205 and 204 and 194 and 173 and 155
IC50 (Human immunodeficiency virus 1, BAL, TZM-bl, BaL.26, clade B, read-out: IC50): 0.1 nM
IC50 (Human immunodeficiency virus 1, HXB2, TZM-bl, HXB2.DG, clade B, read-out: IC50): 0.1 nM
IC50 (Human immunodeficiency virus 1, SC422, TZM-bl, SC422.8, clade B, read-out: IC50): 0.2 nM
IC50 (Human immunodeficiency virus 1, TZM-bl): 0.3 nM
IC50 (Human immunodeficiency virus 1, TZM-bl, 45_01dG5, clade B, read-out: IC50): 0.2 nM
IC50 (Human immunodeficiency virus 1, TZM-bl, 0077.v1.c16, clade C, read-out: IC50): 0.2 nM
IC50 (Human immunodeficiency virus 1, TZM-bl, 89.6.DG, clade B, read-out: IC50): 0.1 nM
IC50 (Human immunodeficiency virus 1, TZM-bl, 96ZM651.02, clade C, read-out: IC50): 0.1 nM
IC50 (Human immunodeficiency virus 1, TZM-bl, 208-strain panel, read-out: Geometric mean IC50): 1.5 nM
IC50 (Human immunodeficiency virus 1, TZM-bl, 208-strain panel, read-out: Median IC50): 0.5 nM
IC50 (Human immunodeficiency virus 1, TZM-bl, 235-47, clade AG, read-out: IC50): 0.1 nM
IC50 (Human immunodeficiency virus 1, TZM-bl, 242-14 (Clade AG), read-out: IC50): 0.5 nM
IC50 (Human immunodeficiency virus 1, TZM-bl, 246-F3.C10.2, clade AC, read-out: IC50): 2 nM
IC50 (Human immunodeficiency virus 1, TZM-bl, 247-23 (Clade D), read-out: IC50): 0.5 nM
IC50 (Human immunodeficiency virus 1, TZM-bl, 0260.v5.c36, clade A, read-out: IC50): 1 nM
IC50 (Human immunodeficiency virus 1, TZM-bl, 263-8, clade AG, read-out: IC50): 0.1 nM
IC50 (Human immunodeficiency virus 1, TZM-bl, 269-12, clade AG, read-out: IC50): 662 nM
IC50 (Human immunodeficiency virus 1, TZM-bl, 271-11, clade AG, read-out: IC50): 1240 nM
IC50 (Human immunodeficiency virus 1, TZM-bl, 286.36, clade C, read-out: IC50): 0.1 nM
IC50 (Human immunodeficiency virus 1, TZM-bl, 288.38, clade C, read-out: IC50): 0.2 nM
IC50 (Human immunodeficiency virus 1, TZM-bl, 0330.v4.c3 (Clade A), read-out: IC50): 10 nM
IC50 (Human immunodeficiency virus 1, TZM-bl, 398-F1.F6.20, clade A, read-out: IC50): 11 nM
IC50 (Human immunodeficiency virus 1, TZM-bl, 426c (Clade C), read-out: IC50): 0.6 nM
IC50 (Human immunodeficiency virus 1, TZM-bl, 0439.v5.c1, clade A, read-out: IC50): 0.6 nM
IC50 (Human immunodeficiency virus 1, TZM-bl, 0815.v3.c3, clade ACD, read-out: IC50): 0.1 nM
IC50 (Human immunodeficiency virus 1, TZM-bl, 00836-2.5, clade C, read-out: IC50): 12200 nM
IC50 (Human immunodeficiency virus 1, TZM-bl, 0921.v2.c14, clade C, read-out: IC50): 0.1 nM
IC50 (Human immunodeficiency virus 1, TZM-bl, 928-28, clade AG, read-out: IC50): 46 nM
IC50 (Human immunodeficiency virus 1, TZM-bl, 001428-2.42, clade C, read-out: IC50): 14 nM
IC50 (Human immunodeficiency virus 1, TZM-bl, 3168.v4.c10, clade C, read-out: IC50): 0.1 nM
IC50 (Human immunodeficiency virus 1, TZM-bl, 3301.v1.c24, clade AC, read-out: IC50): 5 nM
IC50 (Human immunodeficiency virus 1, TZM-bl, 3326.v4.c3, clade CD, read-out: IC50): 0.1 nM
IC50 (Human immunodeficiency virus 1, TZM-bl, 3337.v2.c6, clade CD, read-out: IC50): 0.2 nM
IC50 (Human immunodeficiency virus 1, TZM-bl, 3365.v2.c20, clade A, read-out: IC50): 90 nM
IC50 (Human immunodeficiency virus 1, TZM-bl, 3415.v1.c1, clade A, read-out: IC50): 0.4 nM
IC50 (Human immunodeficiency virus 1, TZM-bl, 3468.v1.c12, clade AD, read-out: IC50): 0.5 nM
IC50 (Human immunodeficiency virus 1, TZM-bl, 3589.v1.c4, clade AC, read-out: IC50): 0.2 nM
IC50 (Human immunodeficiency virus 1, TZM-bl, 3637.v5.c3, clade C, read-out: IC50): 0.2 nM
IC50 (Human immunodeficiency virus 1, TZM-bl, 3718.v3.c11, clade A, read-out: IC50): 0.7 nM
IC50 (Human immunodeficiency virus 1, TZM-bl, 3817.v2.c59, clade CD, read-out: IC50): 8 nM
IC50 (Human immunodeficiency virus 1, TZM-bl, 3873.v1.c24, clade C, read-out: IC50): 0.1 nM
IC50 (Human immunodeficiency virus 1, TZM-bl, 3988.25, clade B, read-out: IC50): 0.1 nM
IC50 (Human immunodeficiency virus 1, TZM-bl, 5768.04, clade B, read-out: IC50): 0.3 nM
IC50 (Human immunodeficiency virus 1, TZM-bl, 6095.v1.c10, clade ACD, read-out: IC50): 0.1 nM
IC50 (Human immunodeficiency virus 1, TZM-bl, 6101.10, clade B, read-out: IC50): 0.1 nM
IC50 (Human immunodeficiency virus 1, TZM-bl, 6322.v4.c1, clade C, read-out: IC50): 42 nM
IC50 (Human immunodeficiency virus 1, TZM-bl, 6405.v4.c34, clade D, read-out: IC50): 257 nM
IC50 (Human immunodeficiency virus 1, TZM-bl, 6471.v1.c16, clade C, read-out: IC50): 0.1 nM
IC50 (Human immunodeficiency virus 1, TZM-bl, 6540.v4.c1, clade AC, read-out: IC50): 2 nM
IC50 (Human immunodeficiency virus 1, TZM-bl, 6545.v4.c1, clade AC, read-out: IC50): 0.5 nM
IC50 (Human immunodeficiency virus 1, TZM-bl, 6631.v3.c10, clade C, read-out: IC50): 0.1 nM
IC50 (Human immunodeficiency virus 1, TZM-bl, 6644.v2.c33, clade C, read-out: IC50): 2 nM
IC50 (Human immunodeficiency virus 1, TZM-bl, 6785.v5.c14, clade C, read-out: IC50): 6 nM
IC50 (Human immunodeficiency virus 1, TZM-bl, 6838.v1.c35, clade C, read-out: IC50): 0.4 nM
IC50 (Human immunodeficiency virus 1, TZM-bl, 7165.18 (Clade B), read-out: IC50): 11 nM
IC50 (Human immunodeficiency virus 1, TZM-bl, 0013095-2.11, clade C, read-out: IC50): 0.1 nM
IC50 (Human immunodeficiency virus 1, TZM-bl, 16055-2.3, clade C, read-out: IC50): 0.3 nM
IC50 (Human immunodeficiency virus 1, TZM-bl, 16845-2.22, clade C, read-out: IC50): 0.1 nM
IC50 (Human immunodeficiency virus 1, TZM-bl, 16936-2.21, clade C, read-out: IC50): 0.4 nM
IC50 (Human immunodeficiency virus 1, TZM-bl, 25710-2.43, clade C, read-out: IC50): 0.1 nM
IC50 (Human immunodeficiency virus 1, TZM-bl, 25711-2.4, clade C, read-out: IC50): 1 nM
IC50 (Human immunodeficiency virus 1, TZM-bl, 25925-2.22, clade C, read-out: IC50): 0.1 nM
IC50 (Human immunodeficiency virus 1, TZM-bl, 26191-2.48, clade C, read-out: IC50): 0.1 nM
IC50 (Human immunodeficiency virus 1, TZM-bl, 57128.vrc15, clade D, read-out: IC50): 0.6 nM
IC50 (Human immunodeficiency virus 1, TZM-bl, 191821.E6.1, clade D, read-out: IC50): 0.1 nM
IC50 (Human immunodeficiency virus 1, TZM-bl, 231965.c01, clade D, read-out: IC50): 0.1 nM
IC50 (Human immunodeficiency virus 1, TZM-bl, 620345.c1, clade AE, read-out: IC50): 49 nM
IC50 (Human immunodeficiency virus 1, TZM-bl, A07412M1.vrc12, clade D, read-out: IC50): 1 nM
IC50 (Human immunodeficiency virus 1, TZM-bl, AC10.29, clade B, read-out: IC50): 0.2 nM
IC50 (Human immunodeficiency virus 1, TZM-bl, ADA.DG, clade B, read-out: IC50): 0.1 nM
IC50 (Human immunodeficiency virus 1, TZM-bl, BB201.B42, clade A, read-out: IC50): 4 nM
IC50 (Human immunodeficiency virus 1, TZM-bl, BB539.2B13, clade A, read-out: IC50): 0.2 nM
IC50 (Human immunodeficiency virus 1, TZM-bl, BG1168.01, clade B, read-out: IC50): 1 nM
IC50 (Human immunodeficiency virus 1, TZM-bl, BI369.9A, clade A, read-out: IC50): 0.3 nM
IC50 (Human immunodeficiency virus 1, TZM-bl, BJOX002000.03.2, clade BC, read-out: IC50): 0.2 nM
IC50 (Human immunodeficiency virus 1, TZM-bl, BJOX009000.02.4, clade AE, read-out: IC50): 105 nM
IC50 (Human immunodeficiency virus 1, TZM-bl, BJOX010000.06.2, clade AE, read-out: IC50): 1660 nM
IC50 (Human immunodeficiency virus 1, TZM-bl, BJOX025000.01.1, clade AE, read-out: IC50): 178 nM
IC50 (Human immunodeficiency virus 1, TZM-bl, BJOX028000.10.3 (Clade AE), read-out: IC50): 236 nM
IC50 (Human immunodeficiency virus 1, TZM-bl, BL01.DG (Clade B), read-out: IC50): 2960 nM
IC50 (Human immunodeficiency virus 1, TZM-bl, BR07.DG, clade B, read-out: IC50): 641 nM
IC50 (Human immunodeficiency virus 1, TZM-bl, BR025.9, clade C, read-out: IC50): 880 nM
IC50 (Human immunodeficiency virus 1, TZM-bl, BS208.B1, clade A, read-out: IC50): 0.3 nM
IC50 (Human immunodeficiency virus 1, TZM-bl, BX08.16, clade B, read-out: IC50): 0.1 nM
IC50 (Human immunodeficiency virus 1, TZM-bl, C1080.c3, clade AE, read-out: IC50): 5380 nM
IC50 (Human immunodeficiency virus 1, TZM-bl, C2101.c1, clade AE, read-out: IC50): 1470 nM
IC50 (Human immunodeficiency virus 1, TZM-bl, C3347.c11, clade AE, read-out: IC50): 452 nM
IC50 (Human immunodeficiency virus 1, TZM-bl, C4118.09 (Clade AE), read-out: IC50): 59 nM
IC50 (Human immunodeficiency virus 1, TZM-bl, CAAN.A2, clade B, read-out: IC50): 0.1 nM
IC50 (Human immunodeficiency virus 1, TZM-bl, CAP45.G3, clade C, read-out: IC50): 4 nM
IC50 (Human immunodeficiency virus 1, TZM-bl, CAP210.E8 (Clade C), read-out: IC50): 14 nM
IC50 (Human immunodeficiency virus 1, TZM-bl, CAP244.D3, clade C, read-out: IC50): 0.1 nM
IC50 (Human immunodeficiency virus 1, TZM-bl, CE703010217.B6, clade C, read-out: IC50): 0.1 nM
IC50 (Human immunodeficiency virus 1, TZM-bl, CH038.12, clade BC, read-out: IC50): 92 nM
IC50 (Human immunodeficiency virus 1, TZM-bl, CH070.1, clade BC, read-out: IC50): 0.8 nM
IC50 (Human immunodeficiency virus 1, TZM-bl, CH117.4, clade BC, read-out: IC50): 0.4 nM
IC50 (Human immunodeficiency virus 1, TZM-bl, CH119.10 (Clade BC), read-out: IC50): 0.1 nM
IC50 (Human immunodeficiency virus 1, TZM-bl, CH181.12, clade BC, read-out: IC50): 0.1 nM
IC50 (Human immunodeficiency virus 1, TZM-bl, CM244.ec1, clade AE, read-out: IC50): 260 nM
IC50 (Human immunodeficiency virus 1, TZM-bl, CNE3, clade AE, read-out: IC50): 61 nM
IC50 (Human immunodeficiency virus 1, TZM-bl, CNE4, clade B, read-out: IC50): 4730 nM
